Each structure is given as a SMILES string.

22 compounds from patent US12071424B2, “IRE1 small molecule inhibitors” (Cornell University, priority 2017, dated 2024) can be followed below.

Assay [1] relates to IRE1a. Briefly: IRE1a Endoribonuclease Nanoluciferase Assay (XBP1 luciferase reporter in 293T cells). It counts as cell-based, human. The following applies: Homo sapiens, HEK-293T, ER stressor, tested as Formic Acid Salt (37: HCl Salt). Here is the method: Compounds disclosed herein assessed for disruption of IRE1 signaling using a IRE1a Endoribonuclease Nanoluciferase Assay. Briefly, 25×10^5 293T cells were seeded in a 10 cm^2 tissue culture plate. About 24 hours later, the cells were transfected with Effectene. In a 15 mL tube, the following was added: 2 ug XBP1 luciferase reporter plasmid (PGK-Luc2-P2A-XBP1u-Nanoluciferase-Pest); 300 ul EC buffer; and 16 ul Enhancer, followed by incubation at room temp for 5 minutes. Next, 60 ul Effectene (Qiagen 301427) was added, followed by incubation at room temperature for 10 minutes. 2.6 mL cDMEM media was added. Old media was aspirated from the cells, followed by addition of 7 mL fresh media. Full transfection mixture was added dropwise to cells. Cells were incubated for 6 hours, followed by trypsinization, centrifugation and resuspension in 11 mL fresh cDMEM media. 100 uL of cells were plated per a well in a 96 well plate. A day later, ER stressors of choice +/−inhibitors were added. To harvest, media was aspirated from cells completely, then 50 uL 1× passive lysis buffer (Promega: E1941) was added per well and put on shaker (300 rpm) for 30 minutes at room temperature. Cells were centrifuged, and 15 uL sample per well was added to a new, opaque white 384 well plate (Corning 3570). 15 uL OneGlo (nanoluciferase kit, Promega N1630) was added. Plates were spun down, placed on shaker (300 rpm) for 10 minutes. Plates were read on luminometer, 1000 ms integration time per well. 15 uL Stop an Glo (nanoluciferase kit) was added. Plates were spun down, placed on shaker (300 rpm) for 10 minutes. Plates were read on luminometer, 1000 ms second integration time per well. Recordings are provided below in Table 4.
(In general: In a reporter assay the amount or activity of a reporter protein is the signal.)

The target in assay [2] is T1, IRE1a (Homo sapiens, UniProt O75460).
T1 construct: purchased SignalChem
T1 sequence (O75460 19-977): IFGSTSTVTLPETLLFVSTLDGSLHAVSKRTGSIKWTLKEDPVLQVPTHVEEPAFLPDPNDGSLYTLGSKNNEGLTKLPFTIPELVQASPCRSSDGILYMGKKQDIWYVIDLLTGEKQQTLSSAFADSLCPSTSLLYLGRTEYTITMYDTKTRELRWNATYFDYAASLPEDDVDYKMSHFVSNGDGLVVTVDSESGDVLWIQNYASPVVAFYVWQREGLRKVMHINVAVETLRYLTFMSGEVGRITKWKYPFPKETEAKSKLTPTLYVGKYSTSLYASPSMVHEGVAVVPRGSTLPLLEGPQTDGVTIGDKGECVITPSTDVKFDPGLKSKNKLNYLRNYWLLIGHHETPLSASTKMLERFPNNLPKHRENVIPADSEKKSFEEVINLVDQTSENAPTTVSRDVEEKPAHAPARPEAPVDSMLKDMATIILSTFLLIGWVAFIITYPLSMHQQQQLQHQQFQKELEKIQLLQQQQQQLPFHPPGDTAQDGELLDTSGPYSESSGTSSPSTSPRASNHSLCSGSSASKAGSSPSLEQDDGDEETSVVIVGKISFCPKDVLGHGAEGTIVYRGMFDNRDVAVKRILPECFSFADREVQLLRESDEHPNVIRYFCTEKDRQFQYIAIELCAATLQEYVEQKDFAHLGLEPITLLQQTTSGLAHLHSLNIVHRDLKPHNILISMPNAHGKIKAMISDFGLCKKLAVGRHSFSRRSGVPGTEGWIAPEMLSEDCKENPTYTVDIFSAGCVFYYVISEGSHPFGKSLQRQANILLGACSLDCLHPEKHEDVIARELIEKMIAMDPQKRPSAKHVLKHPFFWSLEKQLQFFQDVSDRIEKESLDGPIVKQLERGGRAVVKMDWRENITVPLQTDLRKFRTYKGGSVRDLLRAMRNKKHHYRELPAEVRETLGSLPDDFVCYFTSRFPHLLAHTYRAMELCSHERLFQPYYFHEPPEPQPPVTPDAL
Description: In vitro FRET assay (IRE1a cleavage of XBP1 RNA probe). It counts as biochemical. Particulars: 2 nM SignalChem IRE1a, tested as Formic Acid Salt (37: HCl Salt). The procedure:
In vitro FRET assay was performed to evaluate the ability of select compounds to inhibit IRE1, the results of which are summarized in Table 3. To perform the in vitro FRET assay, 1× complete assay buffer (CAB: […], 50 mM sodium citrate pH 7.15, 1 mM magnesium acetate, 0.02% tween 20) was used to SignalChem IRE1a protein to a final concentration of 2 nM. Selected compounds were serially diluted with DMSO in a non-binding black 384-well plate for a total of 15 ul in each well. 2 ul of the serially diluted compound or DMSO control were then added to new wells containing 98 ul of 1× CAB, for a total volume of 100 ul, 10 ul of which were then transferred to wells of a new plate. 5 ul of the diluted IRE1a was then added to each well. 5 ul of a […] XBP1 RNA probe was then added to each well. Fluorescence was then read over 30 minutes in kinetic mode (485/515 nm).
Two RNA probes were used, XBP1 wildtype (SEQ ID NO: 2) which is able to be spliced by active IRE1a or XBP1 mutant (SEQ ID NO: 3) which is unable to be spliced. Each probe contained a 5′ 6-FAM modification and a 3′ IOWA black FQ modification. […]

For the compound `CCc1cc(-c2ccc(NS(=O)(=O)c3ccccc3Cl)nc2C)cc2cnc(NC3CCC(N(C)C)C[C@@H]3F)nc12` (stereo in doubt) [Compound 151, 2-chloro-N-(5-(2-(((1R,2S,4R)-4-(dimethylamino)-2-fluorocyclohexyl)amino)-8-ethylquinazolin-6-yl)-6-methylpyridin-2-yl)benzenesulfonamide], the EC50 in the assay on IRE1a [1] was not above 5 nM. Besides, on IRE1a [2], the IC50 was not above 5 nM.
`N[C@H]1CC[C@H](Nc2ncc3cc(-c4ccc(NS(=O)(=O)c5ccccc5Cl)cc4)ccc3n2)CC1` [Compound 26, N-(4-(2-(((1r,4r)-4-aminocyclohexyl)amino)quinazolin-6-yl)phenyl)-2-chlorobenzene-sulfonamide]: the EC50 in the assay with IRE1a [1] was not above 5 nM. Further, the IC50 at IRE1a [2] is not above 5 nM.
For the compound `CCc1cc(-c2cc(NS(=O)(=O)c3ccccc3Cl)no2)cc2cnc(N[C@H]3CC[C@H](N)CC3)nc12` [Compound 44, N-(5-(2-(((1r,4r)-4-aminocyclohexyl)amino)-8-ethylquinazolin-6-yl)isoxazol-3-yl)-2-chlorobenzene-sulfonamide], in the assay on IRE1a [1], the EC50 is not above 5 nM. Moreover, the concentration for half-maximal inhibition (IC50) on IRE1a [2] is not above 5 nM.
Regarding `CCCc1cc(-c2cc(NS(=O)(=O)c3ccccc3Cl)nn2C)cc2cnc(N[C@H]3CC[C@H](N)CC3)nc12` [Compound 47, N-(5-(2-(((1r,4r)-4-aminocyclohexyl)amino)-8-propylquinazolin-6-yl)-1-methyl-1H-pyrazol-3-yl)-2-chlorobenzene-sulfonamide], the EC50 with IRE1a [1] lay within 5 to 50 nM. In addition, the IC50 at IRE1a [2] is not above 5 nM.
For `N[C@H]1CC[C@H](Nc2ncc3cc(-c4ccc(NS(=O)(=O)c5ccccc5Cl)cc4F)ccc3n2)CC1` [Compound 48, N-(4-(2-(((1r,4r)-4-amiocyclohexyl)amino)quinazolin-6-yl)-3-fluorophenyl)-2-chlorobenzene-sulfonamide] the same measures were 5 to 50 nM and not above 5 nM.
For `N[C@H]1CC[C@H](Nc2ncc3cc(-c4ncc(NS(=O)(=O)c5ccccc5Cl)cc4F)ccc3n2)CC1` [Compound 51, N-(6-(2-(((1r,4r)-4-aminocyclohexyl)amino)quinazolin-6-yl)-5-fluoropyridin-3-yl)-2-chlorobenzene-sulfonamide] the same measures were 50 to 100 nM and not above 5 nM.
For `N[C@H]1CC[C@H](Nc2ncc3cc(-c4cc(F)c(NS(=O)(=O)c5ccccc5Cl)cc4F)ccc3n2)CC1` [Compound 53, N-(4-(2-(((1r,4r)-4-aminocyclohexyl)amino)quinazolin-6-yl)-2,5-difluorophenyl)-2-chlorobenzene-sulfonamide] the same measures were not above 5 nM and not above 5 nM.
In the case of `N[C@H]1CC[C@H](Nc2ncc3cc(-c4cnc(NS(=O)(=O)c5ccccc5Cl)c(F)c4)ccc3n2)CC1` [Compound 54, N-(5-(2-(((1r,4r)-4-aminocyclohexyl)amino)quinazolin-6-yl)-3-fluoropyridin-2-yl)-2-chlorobenzene-sulfonamide], the concentration for a half-maximal effect (EC50) with IRE1a [1] fell in the range of 5 to 50 nM. For the same compound, the IC50 on IRE1a [2] was not above 5 nM.
For `N[C@H]1CC[C@H](Nc2ncc3cc(-c4ccc(NS(=O)(=O)c5ccccc5Cl)c(F)c4F)ccc3n2)CC1` [Compound 56, N-(4-(2-(((1r,4r)-4-aminocyclohexyl)amino)quinazolin-6-yl)-2,3-difluorophenyl)-chlorobenzene-sulfonamide] the same measures were not above 5 nM and not above 5 nM.
For `N[C@H]1CC[C@H](Nc2cc3ccc(-c4ccc(NS(=O)(=O)c5ccccc5Cl)c(F)c4)cc3cn2)CC1` [Compound 57, N-(4-(3-(((1r,4r)-4-aminocyclohexyl)amino)isoquinolin-7-yl)-2-fluorophenyl)-2-chlorobenzene-sulfonamide] the same measures were not above 5 nM and not above 5 nM.
For `CCc1cc(-c2ccc(NS(=O)(=O)c3ccccc3Cl)c(F)c2)cc2cnc(N[C@H]3CC[C@H](NC(C)=O)CC3)nc12` [Compound 59] the same measures were 50 to 100 nM and 5 to 50 nM.
For `CCc1cc(-c2ccc(NS(=O)(=O)c3ccccc3Cl)c(F)c2)cc2cnc(N[C@H]3CC[C@H](NC)CC3)nc12` [Compound 60, 2-chloro-N-(4-(8-ethyl-2-(((1r,4r)-4-(methylamino)cyclohexyl)amino)quinazolin-6-yl)-2-fluorophenyl) benzene sulfonamide], the EC50 in the assay with IRE1a [1] was not above 5 nM. Further, the IC50 on IRE1a [2] was not above 5 nM.
Consider `CCc1cc(-c2ccc(NS(=O)(=O)c3ccccc3Cl)nn2)cc2cnc(N[C@H]3CC[C@H](NC)CC3)nc12` [Compound 61, 2-chloro-N-(6-(8-ethyl-2-(((1r,4r)-4-(methylamino)cyclohexyl)amino)quinazolin-6-yl)pyridazin-3-yl)benzene-sulfonamide], for which, in the assay on IRE1a [1], the EC50 is not above 5 nM. At IRE1a [2], the 50% inhibitory concentration (IC50) is not above 5 nM.
Take `N[C@H]1CC[C@H](Nc2ncc3cc(-c4c(F)cc(NS(=O)(=O)c5ccccc5Cl)cc4F)ccc3n2)CC1` [Compound 62, N-(4-(2-(((1r,4r)-4-aminocyclohexyl)amino)quinazolin-6-yl)-3,5-difluorophenyl)-chlorobenzene-sulfonamide]: the EC50 in the assay on IRE1a [1] fell in the range of 5 to 50 nM. Besides, the IC50 on IRE1a [2] was not above 5 nM.
For `CCc1cc(-c2ccc(NS(=O)(=O)c3ccccc3Cl)nn2)cc2cnc(N[C@H]3CC[C@H](N(C)C)CC3)nc12` [Compound 64] the same measures were not above 5 nM and not above 5 nM.
For `CCc1cc(-c2cc(OC)c(NS(=O)(=O)c3ccccc3Cl)nn2)cc2cnc(N[C@H]3CC[C@H](N)CC3)nc12` [Compound 66, N-(6-(2-(((1r,4r)-4-aminocyclohexyl)amino)-8-ethylquinazolin-6-yl)-4-methoxypyridazin-3-yl)-2-chlorobenzene-sulfonamide] the same measures were 50 to 100 nM and not above 5 nM.
For `Cc1nc(NS(=O)(=O)c2ccccc2Cl)ncc1-c1ccc2nc(N[C@H]3CC[C@H](N)CC3)ncc2c1` [Compound 68, N-(5-(2-(((1r,4r)-4-aminocyclohexyl)amino)quinazolin-6-yl)-4-methylpyrimidin-2-yl)-2-chlorobenzene-sulfonamide] the same measures were 50 to 100 nM and not above 5 nM.
With `CCc1cc(-c2ccc(NS(=O)(=O)c3ccccc3Cl)c(F)c2)cc2cnc(N[C@@H]3CCC[C@H](N)C3)nc12` [Compound 72, N-(4-(2-(((1R,3S)-3-aminocyclohexyl)amino)-8-ethylquinazolin-6-yl)-2-fluorophenyl)-2-chlorobenzene-sulfonamide], the 50% effective concentration (EC50) in the assay on IRE1a [1] lay within 100 to 10000 nM. In addition, the IC50 on IRE1a [2] was not above 5 nM.
As for `CCc1cc(-c2ccc(NS(=O)(=O)c3ccccc3Cl)c(F)c2)cc2cnc(N[C@H]3CCCNC3)nc12` [Compound 73, (S)-2-chloro-N-(4-(8-ethyl-2-(piperidin-3-ylamino)quinazolin-6-yl)-2-fluoropbenyl) benzenesulfon-amide], the EC50 with IRE1a [1] was not above 5 nM.
In the case of `CCc1cc(-c2ccc(NS(=O)(=O)c3ccccc3Cl)c(F)c2)cc2cnc(N[C@@H]3CC[C@@H](N)[C@H](C)C3)nc12` [Compound 74, N-(4-(2-(((1R,3R,4R)-4-amino-3-methylcyclohexyl)amino)-8-ethylquinazolin-6-yl)-2-fluorophenyl)-2-chlorobenzene-sulfonamide], the EC50 in the assay on IRE1a [1] was not above 5 nM. In addition, the IC50 on IRE1a [2] is not above 5 nM.
Consider `N[C@H]1CCC[C@@H](Nc2ncc3cc(-c4ccc(NS(=O)(=O)c5ccccc5Cl)c(F)c4)ccc3n2)C1` [Compound 75, N-(4-(2-(((1R,3S)-3-aminocyclohexyl)amino)quinazolin-6-yl)-2-fluorophenyl)-2-chlorobenzene-sulfonamide], for which the EC50 in the assay on IRE1a [1] fell in the range of 100 to 10000 nM. For the same compound, at IRE1a [2], the IC50 was not above 5 nM.
Consider `N[C@H]1CC[C@@H](Nc2ncc3cc(-c4ccc(NS(=O)(=O)c5ccccc5Cl)c(F)c4)ccc3n2)C1` [Compound 80, N-(4-(2-(((1R,3S)-3-aminocyclopentyl)amino)quinazolin-6-yl)-2-fluorophenyl)-2-chlorobenzene-sulfonamide], for which the EC50 in the assay on IRE1a [1] lay within 100 to 10000 nM.

Broadly, the EC50 is the concentration giving half of the maximal effect. Usually IC50 stands for the midpoint of a concentration-inhibition curve.
